Values joined by “and” are separate entries in the source; they are usually repeats but may differ in a detail not shown here. Equal entries are not always repeated. Inconclusive results and toxic doses are left out. The calls were made as follows: active = survival T/C of 150% or more; inactive = T/C below 125% in these data. Numbered stars: 1 amine (or outer) side, 2 acyl side, 3 side chain; on linkers, the order of the positions; unused ones are H or OH. Bridge positions count the residues as written; N and C are the ends. Square brackets hold non-standard residues; d marks the D form. Peptide text beside a SMILES is read from it. I, II: the chains in the order shown. * marks the point of attachment. ξ: configuration not given here. Quinaldoyl(3-OH,6-OMe) = COc1ccc2nc(C(=O)*)c(O)cc2c1; X8 = CC(=O)OC1CC=NN([*:1])C1C(=O)[*:2]; ξNMeVal(3-OH) = CNC(C(=O)O)C(C)(C)O; X20 = O=C(C1CCCNN1[*:1])[*:2]; Sar = CNCC(=O)O
Tested on: P388 leukemia ip, CD2F1 mice, survival T/C
Assay: NCI In Vivo Anticancer Drug Screen. Data for tumor model P388 Leukemia (intraperitoneal) in CD2F1 (CDF1) mice
Details: endpoint: median survival time, higher = longer survival
Outline: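 Mice carrying the transplanted tumor received test compound or vehicle. Survival was recorded in each group, and the value is the treated-group measurement divided by that of the vehicle-treated control group.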

[1] = dose: 12.5 mg/kg/injection, schedule: Q01DX009 (ip), vehicle: saline
[2] = dose: 50.0 mg/kg/injection, schedule: Q01DX005 (ip), vehicle: Klucel (hydroxypropylcellulose) (HPC)
[3] = dose: 100.0 mg/kg/injection, schedule: Q01DX005 (ip), vehicle: Klucel (hydroxypropylcellulose) (HPC)
[4] = dose: 200.0 mg/kg/injection, schedule: Q01DX005 (ip), vehicle: Klucel (hydroxypropylcellulose) (HPC)
[5] = dose: 25.0 mg/kg/injection, schedule: Q01DX005 (ip), vehicle: Klucel (hydroxypropylcellulose) (HPC)
[6] = dose: 50.0 mg/kg/injection, schedule: Q01DX009 (ip), vehicle: saline with Tween-80
[7] = dose: 100.0 mg/kg/injection, schedule: Q01DX009 (ip), vehicle: saline with Tween-80
[8] = dose: 200.0 mg/kg/injection, schedule: Q01DX009 (ip), vehicle: saline with Tween-80

Measured: T/C

COc1cc2c(c(OC)c1OC)-c1ccc(OC)c(=O)cc1CC=C2
active: dose: 10.0 mg/kg/injection, schedule: Q01DX009 (ip), vehicle: Klucel (hydroxypropylcellulose) (HPC) 170 % of control
inactive: dose: 1.25 mg/kg/injection, schedule: Q01DX009 (ip), vehicle: Klucel (hydroxypropylcellulose) (HPC) 124 % of control | dose: 2.5 mg/kg/injection, schedule: Q01DX009 (ip), vehicle: Klucel (hydroxypropylcellulose) (HPC) 119 % of control and 120 % of control | dose: 5.0 mg/kg/injection, schedule: Q01DX009 (ip), vehicle: Klucel (hydroxypropylcellulose) (HPC) 100 % of control

CCn1c2[n+](c3ccccc31)CCC2
inactive: dose: 3.12 mg/kg/injection, schedule: Q01DX009 (ip), vehicle: saline 114 % of control | dose: 6.25 mg/kg/injection, schedule: Q01DX009 (ip), vehicle: saline 113 % of control | [1] 114 % of control

CN(C)CC/C(Br)=C1/c2ccccc2Sc2ccc(Cl)cc21
inactive: [2] 111 % of control | [3] 98 % of control | [4] 93 % of control

COc1ccc2nc(C(=O)NC3COC(=O)C(C(C)(C)O)N(C)C(=O)CN(C)C(=O)CNC(=O)C4CCCNN4C(=O)C(NC(=O)c4nc5ccc(OC)cc5cc4O)COC(=O)C(C(C)(C)O)N(C)C(=O)CN(C)C(=O)CNC(=O)C4C(OC(C)=O)CC=NN4C3=O)c(O)cc2c1 (stereo not drawn) (I: {Quinaldoyl(3-OH,6-OMe)}-S[X8]G[Sar][ξNMeVal(3-OH)] / II: {Quinaldoyl(3-OH,6-OMe)}-S[X20]G[Sar][ξNMeVal(3-OH)]; ester I:1-II:C, I:C-II:1; configuration not given here)
inactive: dose: 20.0 micrograms/kg/injection, schedule: Q01DX005 (ip), vehicle: DMSO 97 % of control | dose: 40.0 micrograms/kg/injection, schedule: Q01DX005 (ip), vehicle: DMSO 87 % of control

COC1=C(OC)S[C@H]2[C@@H]3C[C@@H]([C@H]4CC=C[C@@H]34)[C@H]2S1
inactive: [2] 100 % of control | [3] 103 % of control | [4] 97 % of control

COc1cc(C2C3=C(CC(C)(C)CC3=O)N(CC(=O)O)C3=C2C(=O)CC(C)(C)C3)ccc1O
inactive: dose: 50.0 mg/kg/injection, schedule: Q01DX009 (ip), vehicle: saline 95 % of control | dose: 100.0 mg/kg/injection, schedule: Q01DX009 (ip), vehicle: saline 102 % of control | dose: 200.0 mg/kg/injection, schedule: Q01DX009 (ip), vehicle: saline 113 % of control

CCOC(=O)c1nc2nc3cc(OC)c(OC)cc3cc2c(=O)[nH]1
inactive: [5] 93 % of control | [2] 87 % of control | [3] 86 % of control and 89 % of control | [4] 91 % of control

C=C1C(=O)OC2CC(C)C3CC(O)OC(O)C3(C)CC12 (stereo not drawn)
inactive: dose: 1.56 mg/kg/injection, schedule: Q01DX009 (ip), vehicle: saline 115 % of control | dose: 3.12 mg/kg/injection, schedule: Q01DX009 (ip), vehicle: saline with Tween-80 102 % of control | dose: 3.13 mg/kg/injection, schedule: Q01DX009 (ip), vehicle: saline 117 % of control | dose: 6.25 mg/kg/injection, schedule: Q01DX009 (ip), vehicle: saline with Tween-80 107 % of control | dose: 12.5 mg/kg/injection, schedule: Q01DX009 (ip), vehicle: saline with Tween-80 99 % of control and 113 % of control

COc1cccc(OC)c1[N+](=O)[O-]
inactive: [6] 87 % of control | [7] 97 % of control | [8] 106 % of control

Cc1cn(C2CC3[O][Sn]([c]4ccccc4)([c]4ccccc4)[O]CC3O2)c(=O)[nH]c1=O (stereo not drawn)
inactive: [1] 124 % of control | dose: 25.0 mg/kg/injection, schedule: Q01DX009 (ip), vehicle: saline 100 % of control

CN(C)N1C(=O)C2C3C=CC(O3)C2C1=O (stereo not drawn)
inactive: dose: 50.0 mg/kg/injection, schedule: Q01DX005 (ip), vehicle: saline 104 % of control | dose: 100.0 mg/kg/injection, schedule: Q01DX005 (ip), vehicle: saline 109 % of control | dose: 200.0 mg/kg/injection, schedule: Q01DX005 (ip), vehicle: saline 100 % of control

N#Cc1cnn(C(N)=O)c1N
inactive: [7] 110 % of control | dose: 100.0 mg/kg/injection, schedule: Q04DX003 (ip), vehicle: saline with Tween-80 100 % of control | [8] 110 % of control | dose: 200.0 mg/kg/injection, schedule: Q04DX003 (ip), vehicle: saline with Tween-80 100 % of control | dose: 400.0 mg/kg/injection, schedule: Q01DX009 (ip), vehicle: saline with Tween-80 100 % of control | dose: 400.0 mg/kg/injection, schedule: Q04DX003 (ip), vehicle: saline with Tween-80 100 % of control

CCOC(=O)c1cccc(N)c1C(=O)OCCN(CC)CC
inactive: [2] 93 % of control | [3] 87 % of control | [4] 99 % of control

CCOc1ccc(N=NC2C(=O)N(c3cccc(Cl)c3Cl)C(=S)N(c3ccc(OC)cc3)C2O)cc1 (stereo not drawn)
inactive: dose: 100.0 mg/kg/injection, schedule: Q01DX001 (ip), vehicle: Klucel (hydroxypropylcellulose) (HPC) 100 % of control | dose: 200.0 mg/kg/injection, schedule: Q01DX001 (ip), vehicle: Klucel (hydroxypropylcellulose) (HPC) 96 % of control | dose: 400.0 mg/kg/injection, schedule: Q01DX001 (ip), vehicle: Klucel (hydroxypropylcellulose) (HPC) 96 % of control

COc1cc(OC)c2c(=O)c3cc(OC)c(OC)cc3oc2c1
inactive: dose: 8.3 mg/kg/injection, schedule: Q01DX009 (ip), vehicle: Klucel (hydroxypropylcellulose) (HPC) 98 % of control | dose: 16.5 mg/kg/injection, schedule: Q01DX009 (ip), vehicle: Klucel (hydroxypropylcellulose) (HPC) 117 % of control | dose: 33.0 mg/kg/injection, schedule: Q01DX009 (ip), vehicle: Klucel (hydroxypropylcellulose) (HPC) 107 % of control | dose: 66.0 mg/kg/injection, schedule: Q01DX009 (ip), vehicle: Klucel (hydroxypropylcellulose) (HPC) 107 % of control

COc1ccc(/C=C2\C=C3OCOC3=CC2=O)cc1
inactive: dose: 2.5 mg/kg/injection, schedule: Q01DX009 (ip), vehicle: saline with Tween-80 100 % of control | dose: 5.0 mg/kg/injection, schedule: Q01DX009 (ip), vehicle: saline with Tween-80 100 % of control | dose: 10.0 mg/kg/injection, schedule: Q01DX009 (ip), vehicle: saline with Tween-80 100 % of control

Cc1nn(-c2nc(-c3ccccc3)cs2)c(C)c1C
inactive: dose: 50.0 mg/kg/injection, schedule: Q01DX009 (ip), vehicle: Klucel (hydroxypropylcellulose) (HPC) 98 % of control | dose: 100.0 mg/kg/injection, schedule: Q01DX009 (ip), vehicle: Klucel (hydroxypropylcellulose) (HPC) 96 % of control | dose: 200.0 mg/kg/injection, schedule: Q01DX009 (ip), vehicle: Klucel (hydroxypropylcellulose) (HPC) 101 % of control

NC(CCCCC(N)C(=O)c1ccccc1)C(=O)c1ccccc1 (stereo not drawn)
inactive: dose: 60.0 mg/kg/injection, schedule: Q01DX005 (ip), vehicle: saline with Tween-80 98 % of control | dose: 120.0 mg/kg/injection, schedule: Q01DX005 (ip), vehicle: saline with Tween-80 93 % of control | dose: 240.0 mg/kg/injection, schedule: Q01DX005 (ip), vehicle: saline with Tween-80 94 % of control

C/C(N)=C/C(=O)c1ccccc1
inactive: dose: 100.0 mg/kg/injection, schedule: Q04DX003 (ip), vehicle: saline 102 % of control | dose: 200.0 mg/kg/injection, schedule: Q04DX003 (ip), vehicle: saline 100 % of control | dose: 400.0 mg/kg/injection, schedule: Q04DX003 (ip), vehicle: saline 105 % of control

Cc1ccc(NC(O)(C(F)(F)F)C(F)(F)F)cc1
inactive: dose: 100.0 mg/kg/injection, schedule: Q04DX002 (ip), vehicle: Klucel (hydroxypropylcellulose) (HPC) 100 % of control | dose: 200.0 mg/kg/injection, schedule: Q04DX002 (ip), vehicle: Klucel (hydroxypropylcellulose) (HPC) 97 % of control | dose: 400.0 mg/kg/injection, schedule: Q04DX002 (ip), vehicle: Klucel (hydroxypropylcellulose) (HPC) 96 % of control

CC(c1ccccc1)/[N+]([O-])=N\O (stereo not drawn)
inactive: dose: 3.0 mg/kg/injection, schedule: Q01DX005 (ip), vehicle: Klucel + Tween-80 100 % of control | dose: 6.0 mg/kg/injection, schedule: Q01DX005 (ip), vehicle: Klucel + Tween-80 90 % of control | dose: 12.0 mg/kg/injection, schedule: Q01DX005 (ip), vehicle: Klucel + Tween-80 97 % of control | dose: 24.0 mg/kg/injection, schedule: Q01DX005 (ip), vehicle: Klucel + Tween-80 98 % of control

Clc1ccccc1C=Nc1ccccc1
inactive: [6] 121 % of control

COc1ccc(C=NC(C)(C)CO)cc1OC
inactive: [5] 100 % of control | [2] 109 % of control | [3] 101 % of control | [4] 100 % of control

COc1cc(/C=C/C2=C(C)C(=O)CC(c3cc(OC)cc(OC)c3)C2C)cc(OC)c1 (stereo not drawn)
inactive: dose: 12.5 mg/kg/injection, schedule: Q04DX003 (ip), vehicle: Klucel (hydroxypropylcellulose) (HPC) 100 % of control | dose: 25.0 mg/kg/injection, schedule: Q04DX003 (ip), vehicle: Klucel (hydroxypropylcellulose) (HPC) 98 % of control | dose: 50.0 mg/kg/injection, schedule: Q04DX003 (ip), vehicle: Klucel (hydroxypropylcellulose) (HPC) 95 % of control
